Consider one molecule from patent US20210330611A1, “THERAPY FOR NEUROLOGICAL DISEASES/DISORDERS” (priority 2020, published 2021).

pIC50: −log10 of the molar value. Like-named read-outs stand apart in the source and are kept apart here.

Series [1] has as its system fibrin-induced microglia activation. In words: Image-based assay of fibrin-induced microglia activation (HTS and dose response). Type of series: cell-based, rat.
Series [2] relates to LPS-induced microglia activation. In words: Image-based assay of LPS-induced microglia activation (HTS and dose response). It counts as cell-based, rat.
A further series addresses T1, GGT (Mus musculus, UniProt Q60928).
T1 construct: GGT activity in BMDMs left unstimulated or stimulated with fibrin after acivicin or vehicle control treatment; endogenous in cells; host or cells: mouse bone marrow-derived macrophages (BMDMs), fibrin-stimulated
In words: GGT activity assay in fibrin-stimulated BMDMs (enzymatic kit, ProteoGREEN-gGlu probe). Conditions: FIG. 6c, FIG. 13A, B. It counts as cell-based. As to the method: GGT activity assay. GGT activity was measured using the MaxDiscovery gamma-Glutamyl Transferase (GGT) Enzymatic Assay Kit (Bioo Scientific) according to the manufacturer's protocol. […]. For in vivo GGT activity assay, spinal cord tissues from the onset of MOG35-55 EAE or LPS-injected substantia nigra area at 12 h were prepared. Tissues were homogenized in 0.1 M Tris-HCl and centrifuged at 13,000 g for 30 min at 4° C. The supernatant was collected and subsequently assessed for GGT activity. The absorbance at 405 nm was detected with a SpectraMax M5 microplate reader (Molecular Devices) with SoftMax Pro 5.2 software (Phoenix Technologies Ltd.). The GGT activity in IU/1 was calculated following the manufacturer's protocol by multiplying the average increase in absorbance at 405 nm over 10 min GGT activity was also measured using a fluorescent probe, ProteoGREEN-gGlu (Goryo Chemical, Hokkaido, Japan), according to the manufacturer's protocol. Cultured BMDMs were plated on 96-well, black μ-clear-bottom microtiter plates (Greiner Bio-One) pre-coated with 25 μg/ml fibrin. […] The fluorescence intensity (excitation/emission filter pairs of 488 nm/520 nm) was measured using a SpectraMax M5 microplate reader (Molecular Devices) with SoftMax Pro 5.2 software (Phoenix Technologies).

Series [3] is classed as in vivo, mouse. Particulars: healthy mice, 10 days, FIG. 12. As to the method:
Blood sampling and hematological analysis. Hematological analysis was carried out for mice treated with saline or acivicin for 10 days. Blood samples were collected from the heart of each anesthetized mouse via cardiac puncture. The complete blood cell counts were measured with an automated blood count analyzer (Hemavet, Drew Scientific Inc).

The subject of another series is MOG35-55 EAE. Put plainly: Active MOG35-55 EAE, clinical scores. It counts as in vivo, mouse. Particulars: mouse, in vivo, 5 mg/kg.
A further series deals with chronic NOD MOG35-55 EAE. In words: Chronic MOG35-55 EAE in NOD mice, clinical scores. Type of series: in vivo, mouse. Conditions: therapeutic, daily from day 80 to day 113, FIG. 8b.
Another series relates to primary rat microglia. Put plainly: Cell toxicity (dead cells, size <150 μm2) in LPS assay. Particulars: primary microglia HTS, LPS stimulation; decreased size (<150 μm^2) as marker of toxicity.

T1 sequence (Q60928 380-568): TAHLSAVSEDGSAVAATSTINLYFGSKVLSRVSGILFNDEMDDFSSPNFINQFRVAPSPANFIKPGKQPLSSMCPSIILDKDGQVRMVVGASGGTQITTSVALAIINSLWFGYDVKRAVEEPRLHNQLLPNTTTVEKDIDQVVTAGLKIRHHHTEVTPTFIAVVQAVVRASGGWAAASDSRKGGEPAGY
T1 sequence (Q60928 1-379): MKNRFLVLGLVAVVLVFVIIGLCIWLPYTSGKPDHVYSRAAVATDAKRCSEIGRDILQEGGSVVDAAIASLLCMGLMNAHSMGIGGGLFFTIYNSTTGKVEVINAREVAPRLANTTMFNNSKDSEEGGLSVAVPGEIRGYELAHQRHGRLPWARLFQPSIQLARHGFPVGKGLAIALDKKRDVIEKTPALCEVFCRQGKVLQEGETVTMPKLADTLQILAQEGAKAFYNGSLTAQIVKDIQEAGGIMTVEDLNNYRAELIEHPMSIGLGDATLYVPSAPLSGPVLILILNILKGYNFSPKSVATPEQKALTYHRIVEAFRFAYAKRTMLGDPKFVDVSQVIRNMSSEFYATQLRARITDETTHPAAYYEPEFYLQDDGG

Turning to `N[C@H](C(=O)O)[C@@H]1CC(Cl)=NO1` [Acivicin, (2S)-2-amino-2-[(5S)-3-chloro-4,5-dihydro-1,2-oxazol-5-yl] acetic acid], the pIC50 in series [1] (Rattus norvegicus, Microglia, 48 h, Table 1, dose response 0.001-20 μM, triplicates, primary rat microglia, 48 h, read-out: Fibrin IC50) is 5.70; in series [1] (Rattus norvegicus, Microglia, Table 7, read-out: fib_IC50) it was 6.24; in series [1] (Rattus norvegicus, Microglia, dose response, fibrin-induced microglia activation, read-out: Fibrin IC50) it was 5.70; in series [2] (Rattus norvegicus, Microglia, 48 h, Table 1, dose response 0.001-20 μM, triplicates, primary rat microglia, 48 h, read-out: LPS IC50) it was 6.00; in series [2] (Rattus norvegicus, Microglia, Table 7, read-out: LPS_IC50), 5.78; in series [2] (Rattus norvegicus, Microglia, dose response, LPS-induced microglia activation, read-out: LPS IC50), 6.00. The 50% inhibitory concentration (IC50) turned out to be 2 µM in series [1] (Rattus norvegicus, Microglia, fibrin-induced microglia activation, dose response, read-out: Fibrin IC50 (uM) (Suppl. Table 7)) and 1 µM in series [2] (Rattus norvegicus, Microglia, LPS-induced microglia activation, dose response, read-out: LPS IC50 (uM) (Suppl. Table 7)). Besides, the inhibition at 10 µM stood at 90% in series [1] (Rattus norvegicus, Microglia, primary microglia HTS, fibrin stimulation, increased cell size (>800 μm^2) as marker of activation, read-out: Fibrin % inhibition) and 93% in series [2] (Rattus norvegicus, Microglia, 48 h, primary microglia HTS, LPS stimulation, increased cell size (>800 μm^2) as marker of activation, read-out: LPS % inhibition). Moreover, the fibrin-induced microglial activation entry in series [1] (dose-dependent, FIG. 6a) was “inhibited”. The LPS-induced microglial activation entry in series [2] (dose-dependent, FIG. 6a) was “inhibited”. For the same molecule, the “fibrin-induced GGT activity in BMDMs” value at GGT is given as “inhibited”. In addition, in series [3], the “total cell blood count in vivo” value is on record as “did not affect”. Further, the “disease onset and severity” value with MOG35-55 EAE was “delayed”. For the same molecule, the “progression, clinical signs” value in the series with chronic NOD MOG35-55 EAE is listed as “suppressed progression”. Moreover, the “LPS % cell toxicity” value in the series on primary rat microglia is reported as 4%.
